Reference: ChEMBL document CHEMBL1157196, “Structure-based discovery of a novel non-peptidic small molecular inhibitor of caspase-3” (Bioorg Med Chem, 2008)

Columns and labels:
[1] = target: T1, Caspase-7 (Homo sapiens, UniProt P55210); test: Inhibition of human recombinant caspase 7 preincubated for 10 mins
T1 sequence (P55210 whole entry): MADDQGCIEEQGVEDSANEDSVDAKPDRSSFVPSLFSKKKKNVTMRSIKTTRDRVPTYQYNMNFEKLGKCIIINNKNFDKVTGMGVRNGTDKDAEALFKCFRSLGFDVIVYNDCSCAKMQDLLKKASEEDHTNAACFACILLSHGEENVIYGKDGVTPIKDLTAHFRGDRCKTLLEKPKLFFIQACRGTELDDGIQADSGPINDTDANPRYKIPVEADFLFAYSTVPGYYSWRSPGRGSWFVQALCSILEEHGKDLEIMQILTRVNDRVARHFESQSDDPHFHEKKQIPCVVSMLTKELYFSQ

[2] = target: Caspase-8 (Homo sapiens, UniProt Q14790); test: Inhibition of human recombinant caspase 8 preincubated for 10 mins
Caspase-8, sequence (Q14790 217-374 limits assumed): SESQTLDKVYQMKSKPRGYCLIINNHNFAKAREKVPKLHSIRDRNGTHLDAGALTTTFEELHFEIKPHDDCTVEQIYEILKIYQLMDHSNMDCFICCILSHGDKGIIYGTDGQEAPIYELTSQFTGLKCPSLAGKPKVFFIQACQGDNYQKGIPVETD
Caspase-8, sequence (Q14790 385-479 limits assumed): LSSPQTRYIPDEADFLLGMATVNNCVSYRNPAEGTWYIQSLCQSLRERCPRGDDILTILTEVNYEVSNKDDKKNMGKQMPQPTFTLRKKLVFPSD

[3] = target: T2, Caspase-3 (Homo sapiens, UniProt P42574); test: Inhibition of human recombinant caspase 3 preincubated for 10 mins
T2 sequence (P42574 whole entry): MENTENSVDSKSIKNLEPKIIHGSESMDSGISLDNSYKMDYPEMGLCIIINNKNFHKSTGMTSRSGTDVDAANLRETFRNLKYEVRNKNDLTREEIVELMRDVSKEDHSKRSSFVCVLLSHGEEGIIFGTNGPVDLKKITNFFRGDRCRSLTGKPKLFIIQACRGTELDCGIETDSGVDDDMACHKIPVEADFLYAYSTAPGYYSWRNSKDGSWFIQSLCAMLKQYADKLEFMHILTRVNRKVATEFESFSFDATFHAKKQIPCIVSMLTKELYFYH

[4] = target: T3, Caspase-9 (Homo sapiens, UniProt P55211); test: Inhibition of human recombinant caspase 9 preincubated for 10 mins
T3 sequence (P55211 whole entry): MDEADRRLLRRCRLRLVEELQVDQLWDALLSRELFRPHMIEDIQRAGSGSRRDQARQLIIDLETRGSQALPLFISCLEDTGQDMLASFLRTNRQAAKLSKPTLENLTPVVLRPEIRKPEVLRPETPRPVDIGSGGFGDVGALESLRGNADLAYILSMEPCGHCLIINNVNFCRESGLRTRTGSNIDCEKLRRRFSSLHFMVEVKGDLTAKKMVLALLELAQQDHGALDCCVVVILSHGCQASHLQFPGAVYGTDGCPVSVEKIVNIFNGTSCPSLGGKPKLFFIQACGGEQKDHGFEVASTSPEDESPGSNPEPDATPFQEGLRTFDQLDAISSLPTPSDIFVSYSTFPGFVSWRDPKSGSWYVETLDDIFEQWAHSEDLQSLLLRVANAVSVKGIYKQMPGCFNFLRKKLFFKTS

IC50 [1]: 84.9 µM
IC50 [2]: > 100 µM
IC50 [3]: 13.6 µM
IC50 [4]: 93 µM
Structure (SMILES): CCOC(=O)COc1cc(C(=O)O)c(O)c2ccccc12
